According to publication PMC6061696 (2018):

Columns and labels:
[1] = test system: neomycin sensing riboswitch (NSR), wild-type (U14) (RNA, riboswitch) GGCUGCUUGUCCUUUAAUGGUCCAGUC; test: 1H NMR imino spectra; settings: no added monovalent ions; complex also in K+ buffers; 50 mM BisTris pH 6.3, 10 °C; ligand in slight excess; U10, U21 signals remain at 40 °C
[2] = test system: NSR U14C mutant (C14+) (RNA, riboswitch, C14 protonated at N3 in the folded complex (transcribed as ordinary C)) GGCUGCUUGUCCUCUAAUGGUCCAGUC; test: 1H NMR imino spectra; settings: no added monovalent ions; complex also in K+ buffers; 50 mM BisTris pH 6.3, 10 °C; ligand in slight excess

NC[C@H]1O[C@H](O[C@H]2[C@H](O[C@@H]3O[C@H](CO)[C@@H](O)[C@H]3O)[C@@H](O)[C@H](N)C[C@@H]2N)[C@H](N)[C@@H](O)[C@@H]1O was tested. Which binding [1] did it give?
The binding was “yes”.

What about the binding [2] of the same compound?
The binding was “yes”.
